Measurements: BindingDB's records for patent US20240002393 (Hoffmann-La Roche, 2024)

Tests used:
[1] = molecular target: T1, Gamma-aminobutyric acid receptor subunit alpha-2/beta-2/gamma-1 (Human, UniProt P47869+P47870+Q8N1C3); assay: Electrophysiology Assay
T1 sequence (Q8N1C3 whole entry): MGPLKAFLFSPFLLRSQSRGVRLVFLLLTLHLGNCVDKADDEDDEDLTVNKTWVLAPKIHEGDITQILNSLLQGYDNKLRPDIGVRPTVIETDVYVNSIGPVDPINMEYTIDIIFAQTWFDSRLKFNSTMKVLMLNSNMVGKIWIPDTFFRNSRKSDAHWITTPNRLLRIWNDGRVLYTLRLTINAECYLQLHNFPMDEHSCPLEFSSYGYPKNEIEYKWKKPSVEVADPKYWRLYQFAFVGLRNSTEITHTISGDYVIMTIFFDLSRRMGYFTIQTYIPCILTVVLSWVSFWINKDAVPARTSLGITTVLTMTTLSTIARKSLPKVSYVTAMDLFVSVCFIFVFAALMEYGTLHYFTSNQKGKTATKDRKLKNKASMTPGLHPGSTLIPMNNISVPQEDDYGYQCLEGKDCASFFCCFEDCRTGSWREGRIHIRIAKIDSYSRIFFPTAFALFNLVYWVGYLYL
T1 sequence (P47869 whole entry): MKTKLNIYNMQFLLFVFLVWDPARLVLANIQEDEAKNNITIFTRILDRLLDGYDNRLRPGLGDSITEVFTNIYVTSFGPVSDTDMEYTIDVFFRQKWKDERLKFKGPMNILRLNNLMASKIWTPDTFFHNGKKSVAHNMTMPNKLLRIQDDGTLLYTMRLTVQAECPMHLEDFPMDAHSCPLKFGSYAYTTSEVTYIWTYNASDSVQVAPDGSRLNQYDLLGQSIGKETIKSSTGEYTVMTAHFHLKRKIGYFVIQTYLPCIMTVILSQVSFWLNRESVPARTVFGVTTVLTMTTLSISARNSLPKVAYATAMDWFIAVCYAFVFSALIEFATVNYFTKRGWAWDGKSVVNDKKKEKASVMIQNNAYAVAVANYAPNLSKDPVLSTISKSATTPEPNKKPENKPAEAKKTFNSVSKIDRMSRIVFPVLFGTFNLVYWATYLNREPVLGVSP
T1 sequence (P47870 whole entry): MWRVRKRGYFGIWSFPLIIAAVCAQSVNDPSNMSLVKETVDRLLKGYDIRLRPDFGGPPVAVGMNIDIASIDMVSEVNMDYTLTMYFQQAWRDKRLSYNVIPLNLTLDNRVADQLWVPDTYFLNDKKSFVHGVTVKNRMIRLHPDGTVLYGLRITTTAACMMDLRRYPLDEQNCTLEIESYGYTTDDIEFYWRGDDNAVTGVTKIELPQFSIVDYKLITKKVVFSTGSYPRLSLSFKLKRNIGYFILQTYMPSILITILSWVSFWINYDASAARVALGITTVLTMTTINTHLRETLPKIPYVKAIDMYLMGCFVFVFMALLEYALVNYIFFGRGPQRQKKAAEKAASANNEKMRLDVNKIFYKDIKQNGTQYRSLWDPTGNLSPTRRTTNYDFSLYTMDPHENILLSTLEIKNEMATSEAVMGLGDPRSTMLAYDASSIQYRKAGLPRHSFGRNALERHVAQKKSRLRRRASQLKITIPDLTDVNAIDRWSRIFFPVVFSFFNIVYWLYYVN
Description: Table 2: Electrophysiological experiments were performed using the Roboocyte instrument (MultiChannelSystems, Reutlingen, Germany) on days 3 to 5 after the micro-injection of mRNA. During the experiment the oocytes were constantly superfused by a solution containing (in mM) NaCl 90, KCl 1, HEPES 5, MgCl2 1 CaCl2 1 (pH 7.4). Oocytes were impaled by two glass microelectrodes (resistance: 0.5-0.8 MΩ) which were filled with a solution containing KCl 1M+K-acetate 1.5 M and voltage-clamped to −80 mV. The recordings were performed at room temperature using the Roboocyte two-electrode voltage clamp system (Multichannelsystem). After an initial equilibration period of 1.5 min GABA was added for 1.5 min at a concentration evoking approximately 20% of a maximal current response (EC20). After another rest interval of 2.5 min GABA was again added evoking a response of similar amplitude and shape. […] Current traces were recorded at a digitization rate of 10 Hz during and shortly before and after the GABA application.

[2] = molecular target: T2, Gamma-aminobutyric acid receptor subunit alpha-1/beta-3/gamma-2 (Homo sapiens, UniProt P14867+P18507+P28472)
T2 sequence (P14867 whole entry): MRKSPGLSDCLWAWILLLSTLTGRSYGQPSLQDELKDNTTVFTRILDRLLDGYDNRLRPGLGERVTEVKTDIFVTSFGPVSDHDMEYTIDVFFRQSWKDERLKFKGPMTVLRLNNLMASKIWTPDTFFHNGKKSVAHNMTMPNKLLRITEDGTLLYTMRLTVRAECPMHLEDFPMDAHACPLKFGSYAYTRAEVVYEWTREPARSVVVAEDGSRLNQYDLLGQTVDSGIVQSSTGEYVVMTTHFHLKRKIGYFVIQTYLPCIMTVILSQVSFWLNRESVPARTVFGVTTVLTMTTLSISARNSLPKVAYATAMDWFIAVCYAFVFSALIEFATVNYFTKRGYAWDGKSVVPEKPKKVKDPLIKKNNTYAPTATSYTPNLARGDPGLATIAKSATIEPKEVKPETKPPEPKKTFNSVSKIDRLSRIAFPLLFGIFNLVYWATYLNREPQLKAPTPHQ
T2 sequence (P18507 whole entry): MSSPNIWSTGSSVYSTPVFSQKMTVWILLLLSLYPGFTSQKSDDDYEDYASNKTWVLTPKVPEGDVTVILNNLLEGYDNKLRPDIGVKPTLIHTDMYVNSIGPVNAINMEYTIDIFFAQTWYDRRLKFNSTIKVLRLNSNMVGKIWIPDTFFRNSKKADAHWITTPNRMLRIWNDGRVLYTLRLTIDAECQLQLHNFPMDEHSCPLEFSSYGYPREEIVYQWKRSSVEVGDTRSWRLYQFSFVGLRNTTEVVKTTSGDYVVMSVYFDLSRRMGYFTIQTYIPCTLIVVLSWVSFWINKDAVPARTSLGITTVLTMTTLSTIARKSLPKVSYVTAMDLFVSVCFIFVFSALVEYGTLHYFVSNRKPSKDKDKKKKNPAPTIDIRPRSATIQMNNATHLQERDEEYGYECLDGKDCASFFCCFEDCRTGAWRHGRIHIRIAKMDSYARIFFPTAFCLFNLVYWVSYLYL
T2 sequence (P28472 whole entry): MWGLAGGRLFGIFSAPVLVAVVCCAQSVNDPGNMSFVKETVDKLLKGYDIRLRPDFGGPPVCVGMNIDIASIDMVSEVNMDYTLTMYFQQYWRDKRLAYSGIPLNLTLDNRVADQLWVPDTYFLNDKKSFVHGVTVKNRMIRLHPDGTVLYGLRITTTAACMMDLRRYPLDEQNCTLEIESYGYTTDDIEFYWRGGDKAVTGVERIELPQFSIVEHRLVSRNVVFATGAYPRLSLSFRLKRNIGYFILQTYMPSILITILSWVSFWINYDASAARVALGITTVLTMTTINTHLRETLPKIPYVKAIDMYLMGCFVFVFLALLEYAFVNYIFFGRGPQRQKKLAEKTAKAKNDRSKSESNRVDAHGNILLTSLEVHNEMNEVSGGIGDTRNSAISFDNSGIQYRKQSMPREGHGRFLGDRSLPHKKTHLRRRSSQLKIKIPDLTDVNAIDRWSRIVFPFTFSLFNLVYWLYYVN

SMILES: CCc1nnc2n1-c1ccc(C(F)(F)F)c(Cl)c1C(c1c(F)cccc1F)=N[C@H]2C [US20240002393, Example 108]
- Ki [1]: 47 nM
- Ki [2]: 2370 nM
